Data: PMC7911220, “Monoterpenoids from the Fruits of Amomum tsao-ko Have Inhibitory Effects on Nitric Oxide Production” (Plants, 2021)
Like-named read-outs stand apart in the source and are kept apart here.

How the values were obtained:
[1] = tested on: LPS-induced NO production in RAW 264.7 cells; experiment: LPS-induced NO production, Griess reaction assay; assay type: cell-based, mouse; details: read-out: IC50, inhibition of LPS-induced NO production
Method: (§1) To obtain plant-derived inhibitors of NO as potential lead compounds for treating inflammation disorders, monoterpene constituents 1–6 isolated from the fruits of A. tsao-ko were assayed to determine their inhibitory activities on LPS-induced NO production in murine macrophage RAW 264.7 cells via the Griess reaction assay, as described previously.
(§2) Mouse RAW264.7 macrophage cells (TIB-71) were maintained in Dulbecco’s modified Eagle medium (DMEM) supplemented with 10% fetal bovine serum (FBS), 100 U/mL penicillin, and 0.1 mg/mL streptomycin in a humidified incubator with 5% CO2 at 37 °C.
(§3) The Griess reaction was performed to measure the concentration of nitrite in the medium as an indicator of NO production. RAW264.7 macrophage cells were cultured in a 96-well plate after seeding at a density of 4 × 10^5 cells/well for 24 h in DMEM supplemented with 10% FBS, and stimulated with or without LPS (1 μg/mL, Sigma Aldrich, St. Louis, MO, USA) in the presence or absence of the compounds. After 24 h of incubation at 37 °C, 5% CO2, the cell supernatant was reacted with equal volumes of Griess reagent solutions to determine nitrite production. Absorbance was measured with a microplate reader (Molecular Devices, Sanjose, CA, USA) at 540 nm. Cell viability was confirmed via MTT (Duchefa Biochemie, Haarlem, The Netherlands) assay. The supernatant was removed and medium containing MTT solution (5 mg/mL in phosphate-buffered saline) was added to each well and incubated for 2 h. The medium was removed, and 100 μL of dimethyl sulfoxide (Duchefa Biochemie, Haarlem, The Netherlands) was added to each well to dissolve the purple formazan product to obtain a colored solution. Absorbance was measured at 540 nm with a microplate reader.

[2] = tested on: RAW264.7 macrophage cells; experiment: MTT assay for cell viability; details: RAW 264.7 cells, LPS-stimulated
Method: as §1, §2, §3

iNOS protein expression = experiment: Western blot analysis of iNOS protein expression in LPS-stimulated RAW264.7 cells; assay type: cell-based, mouse; details: pretreatment 10, 50, 100 μM for 1 h, then LPS 1 μg/mL 24 h
From the text: L-Arginine-derived NO is an intracellular signaling molecule formed in mammalian cells by different three isoforms of nitric oxide synthase (NOS). The isozymes are referred to as neuronal NOS (nNOS or NOS I), inducible NOS (iNOS or NOS II), and an endothelial NOS (eNOS or NOS III). Excessive generation of NO by iNOS is seen in inflammatory diseases such as autoimmune and chronic inflammatory disorders. To examine the mechanism of NO inhibition by active compound 4, we evaluated iNOS protein expression via western blotting.
Figure 2 Effects of (1R,4S,6S)-1,6-dihydroxy-2-menthene (compound 4) on iNOS protein and pro-inflammatory cytokine mRNA expression in LPS-stimulated RAW264.7 cells. […] (C,D) Levels of iNOS, IL-1β, and IL-6 mRNAs were determined via RT-PCR. RT-PCR data results were expressed as the fold of changes of the target gene (iNOS, IL-1β, and IL-6) and normalized to the GAPDH. […]
RAW264.7 cells, plated in 6-well plates (1 × 10^6 cells/well), were treated with compound 4 (10, 50, and 100 μM). […] Protein expression was analyzed via immunoblotting with antibodies against anti-iNOS (cat. no. ab3523; dilution, 1:500, Abcam, Cambridge, UK) and β-actin (cat. no. 5125; dilution, 1:1000, Cell Signaling Technology, Danvers, MA, USA). […] The bands of interest were quantified using the imageJ software.

iNOS mRNA = experiment: RT-PCR of iNOS mRNA in LPS-stimulated RAW264.7 cells; assay type: cell-based, mouse; details: 10, 50, 100 μM for 1 h, then LPS 1 μg/mL 24 h, normalized to GAPDH
Method: (§4) Figure 2 Effects of (1R,4S,6S)-1,6-dihydroxy-2-menthene (compound 4) on iNOS protein and pro-inflammatory cytokine mRNA expression in LPS-stimulated RAW264.7 cells. RAW264.7 cells were pretreated with different concentrations (10, 50, 100 μM) of compound 4 for 1 h, and then stimulated with 1 µg/mL LPS for 24 h. (A,B) Western blot analysis of iNOS expression in cells treated with compound 4 (10, 50, 100 μM). β-Actin was used as a loading control. (C,D) Levels of iNOS, IL-1β, and IL-6 mRNAs were determined via RT-PCR. RT-PCR data results were expressed as the fold of changes of the target gene (iNOS, IL-1β, and IL-6) and normalized to the GAPDH. Values represent the mean ± SD of three independent experiments. […]
(§5) Next, we confirmed the effect of compound 4 on the expression of inflammatory factors, i.e., iNOS, IL-1β, and IL-6 in LPS-stimulated RAW264.7 cells. […] We measured the levels of the relevant mRNAs via reverse transcription polymerase chain reaction (RT-PCR). […]
(§6) RAW264.7 cells, plated in 6-well plates (1 × 10^6 cells/well), were treated with compound 4 (10, 50, and 100 μM) for 1 h prior to LPS, and stimulated with 1 μg/mL LPS or remained unstimulated for 24 h. […] The bands of interest were quantified using the ChemiDoc XRS system and Quantity One software (Bio-Rad Laboratories, Hercules, CA, USA).

IL-1β mRNA = experiment: RT-PCR of IL-1β mRNA in LPS-stimulated RAW264.7 cells; assay type: cell-based, mouse; details: 10, 50, 100 μM for 1 h, then LPS 1 μg/mL 24 h, normalized to GAPDH
Method: as §4, §5, §6

IL-6 mRNA = experiment: RT-PCR of IL-6 mRNA in LPS-stimulated RAW264.7 cells; assay type: cell-based, mouse; details: 10, 50, 100 μM for 1 h, then LPS 1 μg/mL 24 h, normalized to GAPDH
Method: as §4, §5, §6

[3] = Mus musculus, RAW264.7, RAW 264.7 cells, LPS 1 μg/mL, 24 h, Griess reagent

Compound	IC50 [1, 3] [µM]	MTT (cell viability) [2] [µM]	also measured
CC(C)[C@H]1C=C[C@@](C)(O)[C@@H](O)C1 [Compound 4, (1R,4S,6S)-1,6-dihydroxy-2-menthene]	82.5	>100	iNOS protein expression (iNOS protein expression): significantly and dose-dependently inhibited iNOS expression; iNOS mRNA expression (iNOS mRNA): decreased the iNOS expression at the mRNA level, in a dose-dependent manner; IL-1β mRNA level (IL-1β mRNA): reduced; IL-6 mRNA level (IL-6 mRNA): reduced
C=C(C)[C@H]1CC[C@@](C)(O)C[C@@H]1O [Compound 3, (1R,3S,4R)-3-hydroxy isopulegol]	> 100	>100	
CC(=O)O.CNC(=N)NCCC[C@H](N)C(=O)O [NG-methyl-L-arginine acetate, reference compound]		>100	IC50 ([1]; RAW 264.7 cells, LPS 1 μg/mL, 24 h, Griess reagent): 34.2 µM
C/C(C=O)=C\CC/C(C)=C/CO [Compound 6, 8-oxogeraniol]	> 100	>100	
CC(=CCO)CCCC(C)CO (stereo not drawn) [Compound 5, 3,7-dimethyl-2-octene-1,8-diol]	> 100	>100	
O=CC1=CC[C@@H](O)[C@H]2CCC[C@@H]12 [Compound 1, tsaokoin]		>100	IC50 ([1]; Mus musculus, RAW264.7, 24 h): > 100 µM
CC1=C[C@@H](O)[C@H](C(C)C)C[C@H]1O [Compound 2, (3S,4S,6R)-3,6-dihydroxy-1-menthene]	> 100	>100	
